Measurements: patent publication US10815197B2, “N-sulfonyl benzamides as voltage-gated sodium channel inhibitors” (SHANGHAI HAIYAN PHARMACEUTICAL TECHNOLOGY CO., LTD., priority 2016, dated 2020)

Legend:
hNav1.7 = target: T1, hNav1.7 (Homo sapiens, UniProt Q15858); assay: Manual patch clamp experiment hNav1.7 (CHO-hNav1.7 stable cell line); assay type: cell-based; conditions: for inhibition at 0.1 µM: compound at 100 nM, read-out: Inhibition of Nav1.7 100 nM(%); for inhibition at 1 µM: compound at 1000 nM, read-out: Inhibition of Nav1.7 1000 nM(%)
T1 construct: host or cells: CHO
T1 sequence (Q15858 whole entry): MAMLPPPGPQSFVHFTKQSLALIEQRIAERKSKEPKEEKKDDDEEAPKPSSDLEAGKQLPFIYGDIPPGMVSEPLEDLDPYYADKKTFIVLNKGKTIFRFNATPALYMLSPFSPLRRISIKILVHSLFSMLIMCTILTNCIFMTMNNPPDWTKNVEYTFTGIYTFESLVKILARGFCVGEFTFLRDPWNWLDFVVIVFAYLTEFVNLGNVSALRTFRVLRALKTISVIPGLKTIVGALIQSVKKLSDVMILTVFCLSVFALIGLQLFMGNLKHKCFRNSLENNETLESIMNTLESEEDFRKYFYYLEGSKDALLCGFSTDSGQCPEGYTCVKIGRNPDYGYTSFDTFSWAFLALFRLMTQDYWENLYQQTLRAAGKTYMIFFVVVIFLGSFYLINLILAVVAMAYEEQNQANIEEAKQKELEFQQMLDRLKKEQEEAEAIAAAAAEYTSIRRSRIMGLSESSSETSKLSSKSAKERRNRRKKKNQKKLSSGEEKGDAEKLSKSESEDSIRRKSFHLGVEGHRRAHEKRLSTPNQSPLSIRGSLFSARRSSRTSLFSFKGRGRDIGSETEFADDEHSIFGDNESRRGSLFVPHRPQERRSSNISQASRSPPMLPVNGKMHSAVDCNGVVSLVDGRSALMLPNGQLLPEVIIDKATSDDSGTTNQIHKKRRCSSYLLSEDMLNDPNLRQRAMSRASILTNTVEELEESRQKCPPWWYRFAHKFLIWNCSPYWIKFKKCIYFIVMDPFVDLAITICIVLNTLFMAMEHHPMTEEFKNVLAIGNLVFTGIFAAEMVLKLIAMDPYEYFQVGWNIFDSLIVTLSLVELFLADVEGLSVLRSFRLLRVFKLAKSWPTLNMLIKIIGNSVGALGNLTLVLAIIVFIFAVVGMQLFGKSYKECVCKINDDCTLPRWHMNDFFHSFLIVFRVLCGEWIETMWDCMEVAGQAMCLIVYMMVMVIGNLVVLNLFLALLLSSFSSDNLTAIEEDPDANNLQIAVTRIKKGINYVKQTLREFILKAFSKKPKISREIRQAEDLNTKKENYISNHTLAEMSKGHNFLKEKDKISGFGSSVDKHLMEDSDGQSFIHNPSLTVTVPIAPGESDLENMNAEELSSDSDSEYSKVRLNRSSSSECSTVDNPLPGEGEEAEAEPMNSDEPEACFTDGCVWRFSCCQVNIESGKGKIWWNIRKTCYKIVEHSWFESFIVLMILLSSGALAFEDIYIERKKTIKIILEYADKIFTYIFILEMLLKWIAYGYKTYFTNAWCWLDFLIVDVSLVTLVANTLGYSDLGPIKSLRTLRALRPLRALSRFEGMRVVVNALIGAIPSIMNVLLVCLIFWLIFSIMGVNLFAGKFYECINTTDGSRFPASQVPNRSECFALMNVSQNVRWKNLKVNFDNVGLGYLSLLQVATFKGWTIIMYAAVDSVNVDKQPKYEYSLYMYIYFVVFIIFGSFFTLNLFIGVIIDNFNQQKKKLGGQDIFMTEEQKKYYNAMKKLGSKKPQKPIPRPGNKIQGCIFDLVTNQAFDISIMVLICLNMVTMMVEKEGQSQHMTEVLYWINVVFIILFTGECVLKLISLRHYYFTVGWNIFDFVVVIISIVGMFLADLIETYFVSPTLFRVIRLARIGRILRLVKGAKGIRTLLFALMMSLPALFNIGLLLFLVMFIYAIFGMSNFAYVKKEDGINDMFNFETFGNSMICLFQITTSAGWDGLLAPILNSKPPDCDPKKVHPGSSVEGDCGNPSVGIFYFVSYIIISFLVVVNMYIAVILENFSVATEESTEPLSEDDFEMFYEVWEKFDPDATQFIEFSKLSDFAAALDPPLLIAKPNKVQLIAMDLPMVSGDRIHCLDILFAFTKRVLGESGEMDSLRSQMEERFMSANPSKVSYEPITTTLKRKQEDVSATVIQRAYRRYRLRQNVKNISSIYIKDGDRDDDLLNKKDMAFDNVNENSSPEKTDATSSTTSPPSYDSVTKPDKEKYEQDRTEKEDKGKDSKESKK
Summary of the method: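 Whole-cell manual patch clamp on CHO-hNav1.7 or HEK-hNav1.5 cells, extracellular pH 7.3, CsF-based internal. Sodium current elicited by 20 ms steps to −10 mV from either V1/2 holding (with 50 ms −120 mV prepulse) or −120 mV holding, every 10 s; inhibition from current before versus after dosing, IC50 by Hill fit.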

[1] = Metabolism stability assay, human liver microsomes; assay type: in vitro ADME; conditions: for half-life at 1 µM: pH 7.4
Description: Assay 4: Metabolism Stability Assay 1. […] Buffer A: 1 L solution of 100 mM potassium dihydrogen phosphate containing 1 mM EDTA (Sigma, V900157-100G) was prepared. Buffer B: 1 L solution of 100 mM dipotassium hydrogen phosphate containing 1 mM EDTA was prepared. Buffer C: 700 mL of buffer B was taken out and titrated with buffer A to pH 7.4. 2. […] 2.2 20 μl (20 mg/mL) of liver microsomes (Corning Lot. NO. 4133007) stock solution was added to 513.4 μl of buffer C on wet ice. 0.75 mg/mL liver microsomal solution was obtained. 2.3 1.5 μl of each of the above-mentioned compound to be tested and ketanserin solution was added to 498.5 μl of liver microsomal solution (0.7 5 mg/mL) respectively on wet ice. 1.5 μM mixed solution of compound to be tested and 1.5 μM mixed solution of ketanserin were obtained. 2.4 At the time points 0, 5, 15, 30, 45, and 60 min, 30 μl of the mixed solution of compound to be tested and 30 μl of the mixed solution of ketanserin were dispensed into the reaction plate on wet ice, respectively. 2.5 5 mg reduced coenzyme II (Roche, 10621706001) was weighed and dissolved in 1 mL of buffer C. 6 mM reduced coenzyme II solution was obtained. The reduced coenzyme II solution was dispensed into the reaction plate. 2.6 Imipramine was dissolved to give a 10 mM solution. 10 μl of imipramine solution was added to 100 mL of blank acetonitrile to generate the internal reference. 2.7 At 0 min, 135 μL of iced acetonitrile (Merck (Lot. 1778229518)) containing the internal reference was added to each well and then 15 μL of buffer C was added. 2.8 The reaction plate was placed into a 37° C. water bath incubator for 5 min. In the reaction plate, 15 μL of reduced coenzyme II solution was added to each well to initiate the reaction, and the timing was started. At the time points of 5, 15, 30, 45, and 60 min, 135 μL of iced acetonitrile containing the internal reference was added to each well to terminate the reaction. 2.9 The reaction plate was sealed with an aluminum film, placed on a vibration mixer and shaken at 500 rpm for 5 min. The plate was then centrifuged in a centrifuge at 3750 rp for 15 min. 2.10 The sample was diluted with pure water in accordance with the ratio of 1:1 and detected by LC/MS. Half-life: 0.693/K (the slope by plotting based on the incubation time and logarithm of the concentration value) Clearance ratio: (0.693/half-life)*(1/protein concentration (0.5 mg/mL))*(proportional factor) Wherein, the K value and the proportional factor were calculated by those skilled in the art according to the methods described in the prior art and contained in the instructions of the liver microsome product.

`Cc1cc(N2CCN(Cc3cc(F)c(C(=O)NS(=O)(=O)C4CC4)cc3Cl)CC2)ccc1Cl` [Compound Z-164] gave an inhibition at 0.1 µM (hNav1.7) of 89.7%, an inhibition at 1 µM (hNav1.7) of 102% and an IC50 (hNav1.7; read-out: Nav1.7(IC50/nM)) of 24.6 nM. The “Clearance” value [1] was 20.12 mL/min/kg and the half-life at 1 µM [1] was 1.44 h.
For `C[C@@H]1CN(c2ccc(Cl)c(Cl)c2)CCN1Cc1cc(F)c(C(=O)NS(=O)(=O)C2CC2)cc1Cl` [Compound Z-172, (R)-5-Chloro-N-(cyclopropylsulfonyl)-4-((4-(3,4-dichlorophenyl)-2-methylpiperazin-1-yl)methyl)-2-fluorobenzamide], the inhibition at 0.1 µM (hNav1.7) was 89.1%, the inhibition at 1 µM (hNav1.7) was 97.2% and the “Clearance” value [1] was 2.20 mL/min/kg. For the same compound, the half-life at 1 µM [1] was 13.1 h.
In the case of `O=C(NS(=O)(=O)C1CC1)c1cc(Cl)c(CN2CCN(c3ccc(C4CC4)c(Cl)c3)CC2)cc1F` [Compound Z-173], the inhibition at 0.1 µM (hNav1.7) is reported as 93.8%, the inhibition at 1 µM (hNav1.7) is reported as 100% and the “Clearance” value [1] is reported as 6.20 mL/min/kg. It also gave a half-life at 1 µM [1] of 4.67 h.
In the case of `Cc1ccc(N2CCN(Cc3cc(F)c(C(=O)NS(=O)(=O)C4CC4)cc3Cl)CC2)cc1Cl` [Compound Z-177], the inhibition at 0.1 µM (hNav1.7) is reported as 89.2%, the inhibition at 1 µM (hNav1.7) is reported as 98% and the “Clearance” value [1] is reported as 0.00 mL/min/kg. For the same compound, the “T1/2(min)” value [1] was “∞”.
In the case of `CCc1cc(N2CCN(Cc3cc(F)c(C(=O)NS(=O)(=O)C4CC4)cc3Cl)CC2)ccc1Cl` [Compound Z-178], the inhibition at 0.1 µM (hNav1.7) is reported as 89.1%, the inhibition at 1 µM (hNav1.7) is reported as 98.7% and the “Clearance” value [1] is reported as 23.88 mL/min/kg. The half-life at 1 µM [1] was 1.21 h.
With `CCc1cc(C(=O)NS(=O)(=O)C2CC2)c(F)cc1CN1CCN(c2ccc(OC(F)(F)F)cc2)CC1` [Compound Z-189, N-(cyclopropylsulfonyl)-5-ethyl-2-fluoro-4-((4-(4-(trifluoromethoxy)phenyl)piperazin-1-yl)methyl)benzamide] the inhibition at 0.1 µM (hNav1.7) was 83.8%, the inhibition at 1 µM (hNav1.7) was 99.2% and the “Clearance” value [1] was 2.74 mL/min/kg. The “T1/2(min)” value [1] was “∞”.
